Assay results from US20250127933A1, “Method of verifying effectiveness and stability of linker in Drug Delivery system and Structure therefor” (INDUSTRY-ACADEMIC COOPERATION FOUNDATION OF SUNCHON …, priority 2023, published 2025).

Experiments:
[1] = system: HepG2 cells; assay: Confocal live cell imaging in HepG2 cells; assay type: cell-based
Experimental: HepG2 cells were maintained in DMEM medium containing 10% FBS and 1% antibiotics in the 15 μ-plate 96 well black (ibidi, Germany). HepG2 cells were incubated with or without 500 μM of bestatin, LAP inhibitor, for 1 h and subsequently treated with 1 μM of probe and Lyso-Tracker™ Red (Thermo Scientific, USA) for 1 h. The treated cells were washed three times with PBS and treated with 10 μM of DAPI (Thermo Scientific, USA) for 2 h. Imaged were collected by Leica confocal microscopy (TCS SP5 AOBS/Tandem, Leica, Germany). Lyso-Tracker™ Red was excited by 514 nm and detected by 570-620 nm, compounds were excited by 476 nm and detected by 505-545 nm, DAPI was excited by 405 nm and detected by 420-470 nm.

[2] = system: HepG2 cells; assay: Kinetic and competitive study in HepG2 cells; assay type: cell-based; details: bestatin pretreatment 0, 10, 100 μM; Rhodo-P2 2.0 μM
Experimental: HepG2 cells (3×10^4 cells/well) were seeded in black-walled, transparent bottomed 96-well plates and cultured overnight. […] Kinetic study was performed in Synergy™ H1 microplate reader.

[3] = system: Leucine aminopeptidase (LAP); assay: Competitive assay with LAP inhibitor bestatin; assay type: biochemical, porcine; details: bestatin pretreatment 0, 1, 10, 50, 100 μM; LAP 10 μg/mL; PBS pH 7.4, 37° C.
[4] = pH-dependent stability test; assay type: physicochemical; details: 1 μM probe, pH 2 to 12, 25° C.
Experimental: Thermal stability was evaluated by the incubation of 1 μM of the probe in PBS buffer (pH 7.4) at different temperatures ranging from 25 to 45° C. for 20 min and reading fluorescence at each temperature. The pH stability test was performed by the incubation with 1 μM probe in different pH buffers (2 to 13) at 25° C. and recording fluorescence at each pH.

[5] = system: Leucine aminopeptidase (LAP); assay: Enzymatic kinetic study of LAP reaction of activatable fluorescent probes; assay type: biochemical, porcine; details: 1 μM probe; LAP 1, 5, 10, 20, 50, 100 μg/mL; PBS pH 7.4, 80 min, 37° C.
[6] = Ex vivo plasma stability in mice serum; assay type: in vitro ADME, C57BL/6 mice; details: 10 μM probe; for time-dependent fluorescence emission in serum: C57/BL6 mice serum; for % survival rate of probe in serum: C57BL/6 mice serum, 37° C.
Experimental: Animal was treated strictly according to the guidelines for laboratory animal care and use issued by the Sunchon National University Institutional Animal Care and Use Committee (SCNU IACUC). Female C57/BL6 mice (7 weeks old), weighing about 17-20 g, were purchased from Orientbio (Orientbio Inc., Seongnam, Korea). Blood was collected from the posterior orbital plexus in normal mice and centrifuged (5000 rpm, 4° C., 5 minutes) to obtain serum. The stability study was performed by incubation of the fluorescent probe (10 μM) or rhodol fluorophore (0.1, 0.3, 1, 3 and 10 μM) with serum at 37° C. . . . The fluorescence was detected on Synergy™ H1 microplate reader.

[7] = system: Leucine aminopeptidase (LAP); assay: Enzymatic kinetic study of LAP reaction of activatable fluorescent probes; assay type: biochemical, porcine; details: for Fluorophore released in LAP reaction (% yield) / Fluorophore released in LAP reaction (concentration) / kinetics of LAP reaction (time-dependent fluorescence emission): 1 μM probe, 10 μg/mL LAP, PBS pH 7.4, 37° C., 80 min; for Fluorophore released in LAP reaction (concentration): calculated from fluorophore calibration curves; for LAP response / fluorophore release (in words): LAP reaction, enzymatic study
Experimental: All spectroscopic readings were measured with BioTek Synergy™ H1 spectrophotometer, using 96 well microplate. A parent stock solution of probes was dissolved in DMSO to obtain 10 mM. Leucine aminopeptidase was dissolved in deionized water to obtain 1 mg/mL. All spectra measurements were carried out in PBS buffer solution (PBS buffer, 10 mM, pH 7.4, 37° C. The final volume in 96 well microplate was adjusted to 200 μL. RPMI 1640 was obtained from Thermo Scientific (Waltham, MA, USA). Bestatin hydrochloride (LAP inhibitor), DMSO and 2-mercaptoethanol were purchased from Sigma Aldrich (St. Louis, Mo, USA).
The kinetic study for LAP reaction was performed by incubation of 2 μg of LAP ([…]) with 1 μM probe in PBS buffer (10 mM, pH 7.4). The plate was incubated at 37° C. for 80 min with continuous shaking, and the emission spectra were recorded at the corresponding wavelength over time. A solution of LAP (2 μg/200 μL) was pretreated with bestatin (0, 1, 10, 50 and 100 μM) in PBS (10 mM, pH 7.4) at 37° C. for 30 min, and then 1 μM of probe was added. The mixture was incubated at 37° C., and the fluorescence was recorded on Synergy™ H1 using a 96-well microplate.
All reagents and solvents were obtained from commercial sources Sigma-Aldrich Chemical Co., Combi-Block, Tokyo Chemical Industries, Daejung Chemicals, and Alfa Aesar and used without purification. Anhydrous solvents were purchased from Sigma-Aldrich and used under dry nitrogen atmosphere. Ultrapure water was obtained from a water ultra-purification system. Completion of reaction was confirmed by thin layer chromatography (TLC) on Kiesegel 60F254 from Merck and all synthesized compounds were purified by flash column chromatography using ZEOprep 60 (40-63) […] silica gel from ZEOCHEM. ^1H and ^13C NMR spectra were measured on JEOL JNMECZ400s/L1 (400 MHZ) and CDCl3 or DMSO-d6 was used as the NMR solvents. The chemical shifts were quoted in parts per million (ppm) and the coupling constant (J) were reported in hertz unit (Hz). Chemical shifts (in ppm) were referenced to tetramethylsilane (δ=0 ppm) in CDCl3 as an internal standard. ^13C NMR spectra were reported in ppm referenced to the center line of the triplet at 77.0 ppm for CDCl3 or 39.5 ppm for DMSO-d6. All in vitro enzyme assays were performed by taking the absorbance and emission on Synergy™ H1 microplate reader from BioTek. Leucine aminopeptidase from porcine kidney and other enzymes were purchased from Sigma-Aldrich.

[8] = target: T1, Leucine aminopeptidase (LAP) (Sus scrofa, UniProt P15145); assay: Selectivity test against various bioanalytes; assay type: biochemical, porcine; details: 1 μM probe, 1 mM analytes or 1 U/mL enzymes, 0.05 U/mL LAP, PBS pH 7.4, 37° C., 1 h
T1 construct: purchased Sigma-Aldrich; host or cells: porcine kidney (tissue-derived enzyme)
T1 sequence (P15145 33-963 limits assumed): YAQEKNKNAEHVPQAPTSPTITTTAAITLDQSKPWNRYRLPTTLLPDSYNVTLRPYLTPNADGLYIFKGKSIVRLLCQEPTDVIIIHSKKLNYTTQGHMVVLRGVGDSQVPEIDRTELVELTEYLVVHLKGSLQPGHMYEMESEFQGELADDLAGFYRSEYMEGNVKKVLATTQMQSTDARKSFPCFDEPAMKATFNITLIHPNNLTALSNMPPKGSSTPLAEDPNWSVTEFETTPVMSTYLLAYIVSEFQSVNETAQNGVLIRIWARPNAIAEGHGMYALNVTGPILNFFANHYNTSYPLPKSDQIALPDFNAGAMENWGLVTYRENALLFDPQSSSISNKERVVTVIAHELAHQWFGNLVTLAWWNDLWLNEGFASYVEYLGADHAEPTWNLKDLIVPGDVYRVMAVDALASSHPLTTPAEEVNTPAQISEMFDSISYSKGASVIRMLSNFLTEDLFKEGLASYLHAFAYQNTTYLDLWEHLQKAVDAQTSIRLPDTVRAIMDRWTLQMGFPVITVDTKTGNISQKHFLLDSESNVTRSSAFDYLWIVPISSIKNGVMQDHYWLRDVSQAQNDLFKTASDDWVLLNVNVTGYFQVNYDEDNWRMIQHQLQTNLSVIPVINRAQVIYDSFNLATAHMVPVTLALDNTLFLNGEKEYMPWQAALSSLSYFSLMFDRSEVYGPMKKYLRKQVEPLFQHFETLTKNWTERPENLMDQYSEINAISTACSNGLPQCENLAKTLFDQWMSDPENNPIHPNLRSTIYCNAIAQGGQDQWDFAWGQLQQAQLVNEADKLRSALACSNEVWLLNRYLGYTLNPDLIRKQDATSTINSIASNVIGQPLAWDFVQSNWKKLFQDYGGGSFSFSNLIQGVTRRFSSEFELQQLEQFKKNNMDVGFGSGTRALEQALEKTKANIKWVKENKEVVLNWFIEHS
Experimental: 1 μM of probe was incubated with various bioanalytes containing 1 mM of NaOCl, H2O2, CaCl2), ZnCl2, KCl, NaCl, GSH, vitamin C, L-cystein, L-arginine, L-alanine and 1 U/mL of α-amylase, lysozyme, cellulase under 0.05 U/mL of LAP in PBS (10 mM, pH 7.4) at 37° C. for 1 h. The fluorescence was recorded on Synergy™ H1 microplate reader.

| Fluorophore released in LAP reaction (% yield) ([7]; Rhoda-P2) | Fluorophore released in LAP reaction (% yield) ([7]; listed as Rhoda-P2) | SMILES | effect of bestatin on probe fluorescence in confocal live cell imaging ([1]; bestatin 500 μM pretreatment for 1 h, Rhodo-P1 1 μM) | inhibition of Rhodo-P2 response in HepG2 cells [2] | inhibition of LAP reaction of Rhodo-P2 (fluorescence emission) [3] | pH-dependent stability (fluorescence of fluorophore released by degradation) [4] | LAP response at various concentrations of LAP [5] | time-dependent fluorescence emission in serum ([6]; 48 h) | % survival rate of probe in serum ([6]; 48 h) | Fluorophore released in LAP reaction (% yield) [7] | Fluorophore released in LAP reaction (concentration) [7] | LAP response / fluorophore release (in words) [7] | selectivity for LAP over other bioanalytes (fluorescence response) [8] | lysosomal colocalization in confocal live cell imaging ([1]; 1 μM probe, LysoTracker Red DND-99, DAPI, HepG2 cells) | % survival rate of probe in serum ([6]; 4 h p.i.) | kinetics of LAP reaction (time-dependent fluorescence emission) [7] |
| --- | --- | --- | --- | --- | --- | --- | --- | --- | --- | --- | --- | --- | --- | --- | --- | --- |
| – | – | CC(C)C[C@H](NC(=O)[C@@H](O)[C@H](N)Cc1ccccc1)C(=O)O [bestatin] | only showed blue staining by DAPI without green fluorescence from the LAP probe | concentration-dependent inhibition of Rhodo-P2 | reduced fluorescence emission by released fluorophores in a concentration-dependent manner | – | – | – | – | – | – | – | – | – | – | – |
| – | – | COc1ccc2c(c1)Oc1cc(NC(=O)OCc3ccc(NC(=O)[C@@H](N)CC(C)C)cc3)ccc1C21OC(=O)c2ccccc21 (stereo partly drawn) [Probe 4, 4-((S)-2-Amino-4-methylpentanamido)benzyl methoxy-3-oxo-3H-spiro[isobenzofuran-1,9′-xanthen]-6′-(3′-yl)carbamate] | – | – | – | no change in fluorescence emission according to the change in pH | nearly maximal responses at 10 μg/mL of LAP | fluorescence emission with a gentle increasing slope | 48% | 76.9% | ~0.769 µM | high yields of LAP reactions | most biocompatible in selectivity tests as well as pH and thermal stability tests | – | – | – |
| – | – | COc1ccc2c(c1)Oc1cc(NC(=O)[C@@H](N)CC(C)C)ccc1C21OC(=O)c2ccccc21 (stereo partly drawn) [Probe 2, (2S)-2-Amino-N-(3′-methoxy-3-oxo-3H-spiro[isobenzofuran-1,9′-xanthen]-6′-yl)-4-methylpentanamide] | – | – | – | increased fluorescence emission in the pH range of 7-9 | nearly maximal responses at 10 μg/mL of LAP | rapidly increased | 39% | 89.7% | ~0.897 µM | – | – | colocalized into lysosomes with LysoTracker | 45% | faster kinetics than those of the corresponding P2 and P3 probes |
| 98.7% | 74.7% | CCN(CC)c1ccc2c(c1)Oc1cc(NC(=O)OCc3ccc(NC(=O)[C@@H](N)CC(C)C)cc3)ccc1C21OC(=O)c2ccccc21 (stereo partly drawn) [Probe 3, 4-((S)-2-Amino-4-methylpentanamido)benzyl (3′-(diethylamino)-3-oxo-3H-spiro[isobenzofuran-1,9′-xanthen]-6′-yl)carbamate] | – | – | – | no change in fluorescence emission according to the change in pH | – | – | – | – | ~0.987 µM | – | – | – | – | – |
| – | – | COc1ccc2c(c1)Oc1cc(OCc3ccc(NC(=O)[C@@H](N)CC(C)C)cc3)ccc1C21OC(=O)c2ccccc21 (stereo partly drawn) [Probe 6, (2S)-2-Amino-N-(4-(((3′-methoxy-3-oxo-3H-spiro[isobenzofuran-1,9′-xanthen]-6′-yl)oxy)methyl)phenyl)-4-methylpentanamide] | – | – | – | – | nearly maximal responses at 10 μg/mL of LAP | – | – | 37.3% | ~0.373 µM | lower responses | – | – | – | notably slower kinetics |
